Like-named read-outs stand apart in the source and are kept apart here.
Tests used:
acetylcholinesterase [1] = biological target: T1, acetylcholinesterase (Homo sapiens, UniProt P22303); format: biochemical; details: alkaloid standards; 15 min at 37 °C, pH 7.8
T1 construct: purchased Sigma-Aldrich (St. Louis, MO, USA)
Method: (§1) All experiments were repeated three times.
S1. Samples preparation for determination of acetylcholinesterase inhibitory activity A stock solutions of reagents were prepared by dissolving of acetylcholinesterase at con-centrations 200 U/mL or 2 U/mL, acetylthiocholine iodide at concentration 0.0125 M and 5′- dithiobis-(2-nitrobenzoic acid) at concentration 0.00167 M in phosphate buffer at pH 7.8.
Samples for determination of acetylcholinesterase inhibitory activity were obtained by mixing of 50 µL of acetylthiocholine iodide, 50 µL of 5′-dithiobis-(2-nitrobenzoic acid), 50 µL of […]
as §1
All experiments were performed in triplicates.

butyrylcholinesterase [2] = biological target: T2, butyrylcholinesterase (Homo sapiens, UniProt P06276); test: Butyrylcholinesterase inhibition, Ellman method with HPLC-DAD; format: biochemical; details: alkaloid standards; 15 min at 37 °C, pH 7.8
T2 construct: purchased Sigma-Aldrich (St. Louis, MO, USA)

acetylcholinesterase [3] = biological target: T1, acetylcholinesterase; test: Kinetic study of acetylcholinesterase inhibition (Lineweaver-Burk plots and replots); format: biochemical; details: for type of acetylcholinesterase inhibition: Lineweaver-Burk plots
Method: Lineweaver–Burk and Dixon plots were used for the determination of the type of inhibition and inhibition constants (Ki value) of these alkaloids. […] The Ki value was estimated from the replots of the slope of the individual Lineweaver–Burk plots versus the inhibitor concentrations (Figure 5B). […] The type of acetylcholinesterase inhibition and Ki value was determined for palmatine by the same method.

butyrylcholinesterase [4] = biological target: T2, butyrylcholinesterase; details: cited from earlier work
acetylcholinesterase [5] = biological target: T1, acetylcholinesterase; details: cited from earlier work
acetylcholinesterase [6] = biological target: T1, acetylcholinesterase; details: previously reported; cited from earlier work
[7] = ref PubChem; cited from earlier work
[8] = test system: leukemic (Jurkat, MOLT-4), colon (HT-29), cervix (HeLa), breast (MCF-7) cancer cells; details: MOLT-4, HT-29, HeLa, read-out: IC50 values, proliferation and viability; cited from earlier work
[9] = test system: human skin fibroblasts (WS1 cell line); test: MTT cell viability, skin fibroblasts WS1; format: cell-based
Method: (§2) The MTT assay, which measures the activity of mitochondrial metabolism, was used for the determination of the influence of alkaloid standards on cancer cell viability.
(§3) For the evaluation of the effect of Berberis species, extracts against normal human skin fibroblast cells (WS1) were used. Both cell lines were received from the American Type Culture Collection (ATCC; Manassas, VA, USA). A375 and WS1 cells were cultured in Dulbecco’s Modified Eagle’s Medium (DMEM) (Sigma Aldrich, St. Louis, MO, USA). The procedure used in investigations of cell viability was described previously. Inactivated fetal bovine serum, penicillin, and streptomycin were added to cells maintained in a CO2 atmosphere at 37 °C. The suspension of cells was applied to a 96-well plate and incubated for 24 h. Next, the medium was removed from the wells, and Berberis species extracts or alkaloid standards were added to the wells. After incubation, MTT working solution was added to each well, and the plate was again incubated for 3 h. Subsequently, an SDS solution was added, and the concentration of the dissolved formazan was measured (for details, see Section S3. Procedure for investigation of cell viability). For the calculation of IC50 values obtained for the plant extracts and alkaloid standards, the IC50 calculator (https://www.aatbio.com/tools/ic50-calculator, accessed on 16 January 2024) was used.
S1. […]

butyrylcholinesterase [10] = biological target: T2, butyrylcholinesterase; details: read-out: IC50 butyrylcholinesterase; alkaloids isolated from Berberis vulgaris root bark; cited from earlier work
[11] = test system: human melanoma cell line (A375); test: MTT cell viability, melanoma cell line A375; format: cell-based; details: 24 h incubation
Method: as §2, §3
S1. […]

T1 sequence (P22303 32-614, species assumed): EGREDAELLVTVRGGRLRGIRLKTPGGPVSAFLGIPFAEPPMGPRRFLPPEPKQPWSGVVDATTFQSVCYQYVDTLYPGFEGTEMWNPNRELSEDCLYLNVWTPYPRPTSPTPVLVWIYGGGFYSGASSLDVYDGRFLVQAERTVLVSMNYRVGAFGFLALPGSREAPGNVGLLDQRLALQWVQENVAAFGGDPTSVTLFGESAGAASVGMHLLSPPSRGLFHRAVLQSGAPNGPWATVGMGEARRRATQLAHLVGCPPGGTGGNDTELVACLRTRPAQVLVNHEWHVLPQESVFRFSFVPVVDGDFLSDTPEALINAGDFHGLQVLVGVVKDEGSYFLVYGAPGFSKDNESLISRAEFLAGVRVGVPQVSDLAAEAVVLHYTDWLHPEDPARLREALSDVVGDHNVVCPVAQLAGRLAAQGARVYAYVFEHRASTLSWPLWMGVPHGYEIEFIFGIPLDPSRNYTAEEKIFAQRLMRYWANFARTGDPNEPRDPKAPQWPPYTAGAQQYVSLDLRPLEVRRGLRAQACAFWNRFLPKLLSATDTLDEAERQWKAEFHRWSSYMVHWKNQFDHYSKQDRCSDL
T2 sequence (P06276 29-602): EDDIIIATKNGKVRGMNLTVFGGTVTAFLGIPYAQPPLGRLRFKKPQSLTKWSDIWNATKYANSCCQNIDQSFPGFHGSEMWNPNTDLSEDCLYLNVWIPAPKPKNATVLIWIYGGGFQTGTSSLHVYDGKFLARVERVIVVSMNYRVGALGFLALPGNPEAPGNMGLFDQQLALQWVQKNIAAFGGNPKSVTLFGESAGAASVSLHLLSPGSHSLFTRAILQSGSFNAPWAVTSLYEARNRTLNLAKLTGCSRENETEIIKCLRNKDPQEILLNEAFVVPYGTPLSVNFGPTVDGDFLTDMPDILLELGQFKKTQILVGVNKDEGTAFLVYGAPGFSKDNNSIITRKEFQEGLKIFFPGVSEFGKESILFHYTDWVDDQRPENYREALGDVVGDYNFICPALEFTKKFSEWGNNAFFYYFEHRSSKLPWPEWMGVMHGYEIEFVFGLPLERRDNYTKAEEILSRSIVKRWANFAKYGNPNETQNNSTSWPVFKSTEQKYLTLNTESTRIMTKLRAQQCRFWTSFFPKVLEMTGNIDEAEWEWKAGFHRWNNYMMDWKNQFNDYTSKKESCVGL

| Molecule | Hydrogen bond acceptor count [7] | Hydrogen bond donor count [7] | Log P [7] | Polar surface area [7] | also measured |
| --- | --- | --- | --- | --- | --- |
| COc1cc2c(cc1OC)-c1cc3ccc(OC)c(OC)c3c[n+]1CC2 [Palmatine, palmatine] | 4 | 0 | 3.7 | 40.8 Å² | IC50 (acetylcholinesterase [1]): 29.2 ± 1.59 µM; IC50 Values Acetylcholinesterase (acetylcholinesterase [1]): 10.27 µg/mL; IC50 (butyrylcholinesterase [2]): 189 ± 42.5 µM; IC50 Values Butyrylcholinesterase (butyrylcholinesterase [2]): 66.74 µg/mL; type of acetylcholinesterase inhibition (acetylcholinesterase [3]): mixed-type; Ki (acetylcholinesterase [3]; replot of Lineweaver-Burk slopes vs inhibitor concentration, substrate acetylthiocholine iodide): 17 µM; IC50 butyrylcholinesterase (butyrylcholinesterase [4]): 116.7 µg/mL; IC50 acetylcholinesterase (acetylcholinesterase [5]): 7.4 µg/mL; mode of acetylcholinesterase inhibition (acetylcholinesterase [6]): mixed mode |
| Bersavine |  |  |  |  | IC50 [8]: 8.1 to 11 µM |
| C[n+]1cc2c3c(ccc2c2ccc4cc5c(cc4c21)OCO5)OCO3 [Sanguinarine, sanguinarine] | 4 | 0 | 4.4 | 40.8 Å² |  |
| COc1ccc2cc3[n+](cc2c1OC)CCc1cc2c(cc1-3)OCO2 [Berberine, berberine] | 4 | 0 | 3.6 | 40.8 Å² | type of acetylcholinesterase inhibition (acetylcholinesterase [3]): noncompetitive; IC50 ([9]; Homo sapiens, WS1, 24 h, read-out: IC50 WS1): 95.3 µg/mL; mode of acetylcholinesterase inhibition (acetylcholinesterase [6]): non-competitive |
| COc1cc2c3cc1Oc1c(O)c(OC)cc4c1[C@H](Cc1ccc(cc1)Oc1cc(ccc1O)C[C@H]3N(C)CC2)N(C)CC4 [aromoline] |  |  |  |  | IC50 (butyrylcholinesterase [10]): 0.82 µM |
| COc1ccc2c(c[n+](C)c3c4cc5c(cc4ccc23)OCO5)c1OC [Chelerythrine, chelerythrine] | 4 | 0 | 4.6 | 40.8 Å² |  |
| CN1CCc2cc3c(cc2C(=O)Cc2ccc4c(c2C1)OCO4)OCO3 [Protopine, protopine] | 6 | 0 | 2.8 | 57.2 Å² |  |
| N.N.[Cl][Pt][Cl] [Cisplatin, cisplatin] |  |  |  |  | IC50 A375 [11]: 23.8 µg/mL; IC50 WS1 ([9]; human skin fibroblast cell line WS1, MTT, 24 h incubation): 44.07 µg/mL |

— paper PMC10933966, “In Vitro and In Silico of Cholinesterases Inhibition and In Vitro and In Vivo Anti-Melanoma Activity Investigations of Extracts Obtained from Selected Berberis Species” (Molecules, 2024)
